Data taken from PubChem BioAssay AID2060497 (Molecular Pharmacology Branch, DTP, NCI, 2025).

Test system: 317291-083-R-J1-PDC complex spheroids, viability
Assay: Anticancer human tumor 317291-083-R-J1-PDC patient-derived soft tissue sarcoma cell line growth inhibition [GQUAD]
Details: for IC50: curve of first compound; for viability, T/C: stronger effect = lower value
Excerpt: DNA G-quadruplex Stabilizer Agents in Combinations in Complex Spheroids
A high-throughput screen of multi-cell type tumor spheroids was designed to identify active combinations of DNA G-quadruplex stabilizer agents and targeted small molecules. Complex spheroids include a stromal component modeled by human endothelial cells (HUVEC) and fibroblasts modeled by human mesenchymal stem cells (MSCs). The concentration ranges selected for each drug and investigational agent were based upon clinically achievable concentrations if the clinical Cmax of the agent was known.
Compounds. The drugs and investigational agents: pidnarulex (CX-5461; NSC782164), APTO-253 (NSC789042), BRACO-19 (NSC847499), peposertib (NSC802822), ceralasertib (NSC780249), elimusertib (NSC800525), camonsertib (NSC841442), AZD-1390 (NSC803789), olaparib (NSC753686), talazoparib (NSC767125), ART-558 (NSC835418), sotorasib (NSC818433), MRTX-1133 (NSC836407), SN-38 (NSC673596), topotecan (NSC609699), etoposide (NSC141540), doxorubicin (NSC123127), gemcitabine (NSC613327), 5-fluorouracil (NSC19893), paclitaxel (NSC125973), vemurafenib (NSC761431), panobinostat (NSC761190), R-306465 (JNJ-16241199; NSC773264), adavosertib (NSC754352), TP-3654 (NSC805149), carboplatin (NSC241240), KSQ-4279 (NSC840948), and staurosporine (NSC755774) were obtained from the National Cancer Institute (NCI) Developmental Therapeutics Program Chemical Repository (34). The FDA-approved anticancer drug set is available from the NCI Developmental Therapeutics Program. […] The stock solutions were prepared in dimethyl sulfoxide (DMSO, Sigma-Aldrich, St. Louis, MO, cat. D2650) at 800-fold the tested concentration and stored at -70 degrees C prior to their use. All drugs and investigational agents were tested over a range starting from a high concentration at or near the clinical Cmax and decreasing in half-log increments. If the clinical Cmax for an agent had not been determined, the highest concentration tested was 10 microM.
2.3 Cell Culture. All cells were maintained in an incubator at 37 degrees C and 5% CO2 with 95% humidity. The PDC lines were cultured according to standard operating procedures established by the NCI PDMR. All PDCs were thawed and cultured in Matrigel-coated flasks prepared with a working solution of 1X Ham's F-12 nutrient mix, without supplementation (Invitrogen, cat. 11765054), 100 U/mL penicillin-streptomycin (Invitrogen, cat. 15140122), and 2.5% Matrigel (Corning Inc., cat. 354248) for the first three passages. The 857933-349-R-J2-PDC line was cultured in 6C/Colon 1B media, which includes advanced DMEM/F-12 (Thermo Fisher Scientific, cat. 12634028), 10 mM HEPES (Thermo Fisher Scientific, cat. 15630080), 1X GlutaMAX supplement (Thermo Fisher Scientific, cat. 35050061), 0.1 mg/mL primocin (InvivoGen, cat. ant-pm-2), 10% defined fetal bovine serum, heat inactivated (HyClone Laboratories Inc., cat. SH30070.03HI), 50% L-WRN conditioned media (ATCC, cat. CRL-3276), 1.25 mM N-Acetyl-L-cysteine (Sigma-Aldrich, cat. A9165), 10 mM nicotinamide (Sigma-Aldrich, cat. N0636), 1X B-27 supplement (Thermo Fisher Scientific, cat. 17504044), 1X N-2 supplement (Thermo Fisher Scientific, cat. 17502048), 10 microM Y-27632 dihydrochloride (Tocris Bioscience, cat. 1254), and 50 ng/mL human EGF recombinant protein (Thermo Fisher Scientific, cat. PHG0311). The 485176-168-R4-J1-PDC line was cultured in Panc media, which includes all 6C/Colon 1B media components plus 100 ng/mL human FGF-10 (Thermo Fisher Scientific, cat. 100-26), 500 nM SB-431542 (Selleckchem, cat. S1067), and gastrin (Tocris, cat. 3006).
[…]

[1] = second compound 0.0316 µM, first compound 0.0316 µM
[2] = second compound 0.0316 µM, first compound 0.1 µM
[3] = second compound 0.0316 µM, first compound 0.316 µM
[4] = second compound 0.0316 µM, first compound 1 µM
[5] = second compound 0.0316 µM, first compound 3.16 µM
[6] = second compound 0.0316 µM, first compound 10 µM
[7] = second compound 0.1 µM, first compound 0.0316 µM
[8] = second compound 0.1 µM, first compound 0.1 µM
[9] = second compound 0.1 µM, first compound 0.316 µM
[10] = second compound 0.1 µM, first compound 1 µM
[11] = second compound 0.1 µM, first compound 3.16 µM
[12] = second compound 0.1 µM, first compound 10 µM
[13] = second compound 0.316 µM, first compound 0.0316 µM
[14] = second compound 0.316 µM, first compound 0.1 µM
[15] = second compound 0.316 µM, first compound 0.316 µM
[16] = second compound 0.316 µM, first compound 1 µM
[17] = second compound 0.316 µM, first compound 3.16 µM
[18] = second compound 0.316 µM, first compound 10 µM
[19] = second compound 1 µM, first compound 0.0316 µM
[20] = second compound 1 µM, first compound 0.1 µM
[21] = second compound 1 µM, first compound 0.316 µM
[22] = second compound 1 µM, first compound 1 µM
[23] = second compound 1 µM, first compound 3.16 µM
[24] = second compound 1 µM, first compound 10 µM
[25] = second compound 3.16 µM, first compound 0.0316 µM
[26] = second compound 3.16 µM, first compound 0.1 µM
[27] = second compound 3.16 µM, first compound 0.316 µM
[28] = second compound 3.16 µM, first compound 1 µM
[29] = second compound 3.16 µM, first compound 3.16 µM
[30] = second compound 3.16 µM, first compound 10 µM
[31] = second compound 10 µM, first compound 0.0316 µM
[32] = second compound 10 µM, first compound 0.1 µM
[33] = second compound 10 µM, first compound 0.316 µM
[34] = second compound 10 µM, first compound 1 µM
[35] = second compound 10 µM, first compound 3.16 µM
[36] = second compound 10 µM, first compound 10 µM
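Also: spheroids exposed to compounds for one week before readout.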
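For viability, T/C in this document: percent viability relative to DMSO vehicle wells taken as 100%.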

## CC(C)n1c(=O)n(C)c2cnc3cc(F)c(-c4ccc(OCCCN5CCCCC5)nc4)cc3c21 + CN(C)c1ccc(Nc2c3ccc(NC(=O)CCN4CCCC4)cc3nc3cc(NC(=O)CCN4CCCC4)ccc23)cc1
Second compound 0.0316 µM
  IC50: 6620 nM
Second compound 0.1 µM
  IC50: 3820 nM
Second compound 0.316 µM
  IC50: 784 nM
Second compound 1 µM
  IC50: 42.8 nM
Second compound 3.16 µM
  IC50: < 31.6 nM
Second compound 10 µM
  IC50: < 31.6 nM
[1]
  viability, T/C: 96.6%
[2]
  viability, T/C: 88.6%
[3]
  viability, T/C: 92.1%
[4]
  viability, T/C: 86.7%
[5]
  viability, T/C: 79%
[6]
  viability, T/C: 34.3%
[7]
  viability, T/C: 92.9%
[8]
  viability, T/C: 79.9%
[9]
  viability, T/C: 96.3%
[10]
  viability, T/C: 81.9%
[11]
  viability, T/C: 56%
[12]
  viability, T/C: 20.6%
[13]
  viability, T/C: 92.8%
[14]
  viability, T/C: 65%
[15]
  viability, T/C: 57.6%
[16]
  viability, T/C: 47.2%
[17]
  viability, T/C: 49.6%
[18]
  viability, T/C: 10.5%
[19]
  viability, T/C: 53.7%
[20]
  viability, T/C: 44.7%
[21]
  viability, T/C: 24.4%
[22]
  viability, T/C: 34.4%
[23]
  viability, T/C: 20.1%
[24]
  viability, T/C: 7.52%
[25]
  viability, T/C: 31.8%
[26]
  viability, T/C: 12.2%
[27]
  viability, T/C: 12.3%
[28]
  viability, T/C: 4.69%
[29]
  viability, T/C: 4.81%
[30]
  viability, T/C: 1.25%
[31]
  viability, T/C: 27.5%
[32]
  viability, T/C: 3.95%
[33]
  viability, T/C: 0.88%
[34]
  viability, T/C: 0.42%
[35]
  viability, T/C: 0.55%
[36]
  viability, T/C: 4.73%

## CC1COCCN1c1cc(C2(O)CC3CCC(C2)O3)c2cnn(-c3ccn[nH]3)c2n1 (centres undefined) + CN(C)c1ccc(Nc2c3ccc(NC(=O)CCN4CCCC4)cc3nc3cc(NC(=O)CCN4CCCC4)ccc23)cc1
Second compound 0.0316 µM
  IC50: 37.1 nM
Second compound 0.1 µM
  IC50: < 31.6 nM
Second compound 0.316 µM
  IC50: < 31.6 nM
Second compound 1 µM
  IC50: < 31.6 nM
Second compound 3.16 µM
  IC50: < 31.6 nM
Second compound 10 µM
  IC50: < 31.6 nM
[1]
  viability, T/C: 54.7%
[2]
  viability, T/C: 21.6%
[3]
  viability, T/C: 16.4%
[4]
  viability, T/C: 16.2%
[5]
  viability, T/C: 12.9%
[6]
  viability, T/C: 2.01%
[7]
  viability, T/C: 50.5%
[8]
  viability, T/C: 25.5%
[9]
  viability, T/C: 18.2%
[10]
  viability, T/C: 15.3%
[11]
  viability, T/C: 11.1%
[12]
  viability, T/C: 3.17%
[13]
  viability, T/C: 44.2%
[14]
  viability, T/C: 17.4%
[15]
  viability, T/C: 12.6%
[16]
  viability, T/C: 12.1%
[17]
  viability, T/C: 12.8%
[18]
  viability, T/C: 2.37%
[19]
  viability, T/C: 23.5%
[20]
  viability, T/C: 10.9%
[21]
  viability, T/C: 8.42%
[22]
  viability, T/C: 5.55%
[23]
  viability, T/C: 7.51%
[24]
  viability, T/C: 1.2%
[25]
  viability, T/C: 15.1%
[26]
  viability, T/C: 9.28%
[27]
  viability, T/C: 6%
[28]
  viability, T/C: 3.23%
[29]
  viability, T/C: 4.27%
[30]
  viability, T/C: 0.57%
[31]
  viability, T/C: 4.09%
[32]
  viability, T/C: 3.93%
[33]
  viability, T/C: 2.46%
[34]
  viability, T/C: 2.16%
[35]
  viability, T/C: 2.2%
[36]
  viability, T/C: 0.34%
